This assay concerns the target T1, hemoglobin (normal human adult blood) (Homo sapiens, UniProt P68871+P69905).
T1 construct: Normal whole blood was collected from adult healthy donors; from tissue; host or cells: normal human whole blood (red blood cells), adult healthy donors
Nature of the assay: Time-dependent oxygen equilibrium curve (OEC) studies in normal whole blood. It counts as cell-based. The note with it: 2 mM compound, 2% DMSO, normal human blood 20% hematocrit, 37° C., 1 h. The procedure:
Materials: Normal whole blood was collected from adult healthy donors at the Virginia Commonwealth University after informed consent. The use of these human samples is in accordance with regulations of the IRB for Protection of Human Subjects. Compounds (50 mM-100 mM concentration in DMSO) were stored at 15° C. or room temperature until use.
The time-dependent OEC studies were conducted on normal human adult blood samples with hematocrit value of 20% in the absence or presence of effectors solubilized in DMSO at final drug and DMSO concentrations of 2 mM and 2%, respectively. […] The mixture was further incubated at 37° C. with shaking. […] After equilibration, the sample was removed by syringe and aspirated into a ABL 700 series table top automated blood gas analyzer (Radiometer America, Inc., Westlake, Ohio) to determine values of total hemoglobin (tHb), methemoglobin (metHb), hematocrit (Hct), pH, partial pressure of oxygen (pO2), and Hb oxygen saturation values (sO2). The measured values of sO2 and pO2 at each partial pressure of oxygen are then subjected to a non-linear regression analysis using the program Scientist (Micromath, Salt Lake City, Utah) with the following equation: […]
This equation was used to calculate P50 and Hill coefficient (N) values. Corresponding control experiments without the test compound (P50control) but containing DMSO were also performed. GBT440 was used as a positive control.
T1 sequence (P69905 2-142 limits assumed): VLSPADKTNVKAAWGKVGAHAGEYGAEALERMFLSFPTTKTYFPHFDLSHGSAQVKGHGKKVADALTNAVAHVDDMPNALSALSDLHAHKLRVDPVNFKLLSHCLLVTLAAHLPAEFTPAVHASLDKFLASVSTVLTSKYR
T1 sequence (P68871 2-147 limits assumed): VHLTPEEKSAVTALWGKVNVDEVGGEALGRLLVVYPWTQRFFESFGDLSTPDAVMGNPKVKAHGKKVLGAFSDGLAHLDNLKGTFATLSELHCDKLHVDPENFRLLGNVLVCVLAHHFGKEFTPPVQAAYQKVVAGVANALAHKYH
On to `CC(C)n1nccc1-c1ncccc1COc1ccc2c(c1C=O)C(O)C(F)(F)O2` (stereo not drawn) [Example 9, 2,2-difluoro-3-hydroxy-5-((2-(1-isopropyl-1H-pyrazol-5-yl)pyridin-3-yl)methoxy)-2,3-dihydrobenzofuran-4-carbaldehyde], for which the “delta p50” value is reported as −64%.

In the case of `CC(C)n1nccc1-c1ncccc1COc1ccc2c(c1C=O)C(O)C(F)(F)C2` (stereo not drawn) [Example 10, 2,2-difluoro-3-hydroxy-5-((2-(1-isopropyl-1H-pyrazol-5-yl)pyridin-3-yl)methoxy)-2,3-dihydro-1H-indene-4-carbaldehyde], the “delta p50” value is on record as −68%.

Consider `CC(C)n1nccc1-c1ncccc1COc1ccn2nnnc2c1C=O` [Example 13, 7-((2-(1-isopropyl-1H-pyrazol-5-yl)pyridin-3-yl)methoxy)tetrazolo[1,5-a]pyridine-8-carbaldehyde], for which the “delta p50” value was −9%.

Regarding `CC(C)n1nccc1-c1ncccc1COc1ccc2ocnc2c1C=O` [Example 14, 5-((2-(1-isopropyl-1H-pyrazol-5-yl)pyridin-3-yl)methoxy)benzo[d]oxazole-4-carbaldehyde], the “delta p50” value was −63%.

In the case of `CC(C)n1nccc1-c1ncccc1COc1ccc2ncoc2c1C=O` [Example 15, 6-((2-(1-isopropyl-1H-pyrazol-5-yl)pyridin-3-yl)methoxy)benzo[d]oxazole-7-carbaldehyde], the “delta p50” value is −81%.

As to `CC(C)n1nccc1-c1ncccc1COc1ccc2sccc2c1C=O` [Example 20, 5-((2-(1-isopropyl-1H-pyrazol-5-yl)pyridin-3-yl)methoxy)benzo[b]thiophene-4-carbaldehyde], the “delta p50” value is −74%.

For the compound `CC(C)n1nccc1-c1ncccc1COc1ccc2c(c1C=O)CCS2(=O)=O` [Example 21, 5-((2-(1-isopropyl-1H-pyrazol-5-yl)pyridin-3-yl)methoxy)-2,3-dihydrobenzo[b]thiophene-4-carbaldehyde 1,1-dioxide], the “delta p50” value is −72%.

Consider `CC(C)n1nccc1-c1ncccc1CSc1cccc(O)c1C=O` [Example 23, 2-hydroxy-6-(((2-(1-isopropyl-1H-pyrazol-5-yl)pyridin-3-yl)methyl)thio)benzaldehyde], for which the “delta p50” value is reported as −62%.

As to `[2H]C(=O)c1c(O)cccc1OCc1cccnc1-c1ccnn1C(C)C` [Example 24], the “delta p50” value is −47%.

`[2H]C([2H])([2H])C(n1nccc1-c1ncccc1COc1cccc(O)c1C=O)C([2H])([2H])[2H]` [Example 30, 2-hydroxy-6-((2-(1-(propan-2-yl-1,1,1,3,3,3-d6)-1H-pyrazol-5-yl)pyridin-3-yl)methoxy)benzaldehyde]: the “delta p50” value is recorded as −85%.

As for `CC(C)n1nccc1-c1nn(C)c(=O)cc1COc1cccc(O)c1C=O` [Example 59, 2-hydroxy-6-((3-(1-isopropyl-1H-pyrazol-5-yl)-1-methyl-6-oxo-1,6-dihydropyridazin-4-yl)methoxy)benzaldehyde], the “delta p50” value is listed as −54%.

Consider `CC(C)n1nccc1-c1cn(C)c(=O)cc1COc1cccc(O)c1C=O` [Example 60, 2-hydroxy-6-((5-(1-isopropyl-1H-pyrazol-5-yl)-1-methyl-2-oxo-1,2-dihydropyridin-4-yl)methoxy)benzaldehyde], for which the “delta p50” value is listed as −69%.

As to `CC(C)n1nccc1-c1nccc2c1C(Oc1cccc(O)c1C=O)CO2` (stereo not drawn) [Example 61g, 2-hydroxy-6-((4-(1-isopropyl-1H-pyrazol-5-yl)-2,3-dihydrofuro[3,2-c]pyridin-3-yl)oxy)benzaldehyde], the “delta p50” value is given as −59%.

`CC(C)n1nccc1-c1nccc2c1[C@@H](Oc1cccc(O)c1C=O)CO2` [Example 62a, (R)-2-hydroxy-6-((4-(1-isopropyl-1H-pyrazol-5-yl)-2,3-dihydrofuro[3,2-c]pyridin-3-yl)oxy)benzaldehyde]: the “delta p50” value is listed as −63%.

Consider `CC(C)n1nccc1-c1nccc2c1[C@H](Oc1cccc(O)c1C=O)CO2` [Example 62b, (S)-2-hydroxy-6-((4-(1-isopropyl-1H-pyrazol-5-yl)-2,3-dihydrofuro[3,2-c]pyridin-3-yl)oxy)benzaldehyde], for which the “delta p50” value is recorded as −64%.

The record behind these values is patent US10787430B2, “Hemoglobin modifier compounds and uses thereof” (FronThera U.S. Pharmaceuticals LLC, priority 2016, dated 2020).
